Assay results from patent US11098053B2, “Enhanced osteogenic activity of daidzein analogs on human mesenchymal stem cells” (THE ADMINISTRATORS OF THE TULANE EDUCATIONAL FUND, priority 2013, dated 2021).
“Also recorded” adds a separate entry of the source.

Assays:
[1] = system: Human bone marrow derived mesenchymal stem cells (MSCs); test: Osteogenic differentiation of MSCs (Alizarin Red calcium deposition); conditions: for osteogenic activity (structure-activity summary, in words): donor MSCs; for osteogenic activity (structure-activity summary, in words) / osteogenesis averaged over all three donors, relative to vehicle treated MSCs / cytotoxicity to donor MSCs: 1 μM; for IC50: read-out: IC50 averaged among the three donors, mean of three donors; for cytotoxicity to donor MSCs: MSCs from three donors (toxic in Donor 2 and Donor 3); for osteogenic differentiation of MSCs, fold relative to vehicle treated MSCs: daidzein 1 μM, genistein 1 μM, Alizarin Red
BMSCs [2] = test: Osteogenic differentiation of BMSCs (alizarin red); conditions: 14 days; for osteogenic potential of BMSCs relative to vehicle, with fulvestrant: 1 μM + 100 nM fulvestrant; for osteogenic potential of BMSCs relative to vehicle, with fulvestrant / osteogenic potential of BMSCs relative to vehicle, inhibitor study, without fulvestrant: FIG. 12; for osteogenic differentiation (calcium deposition), fold relative to vehicle-treated BMSCs: n=6 donors; for osteogenic differentiation (calcium deposition), fold relative to vehicle-treated BMSCs / cytotoxicity of BMSCs by bright field microscopy, compared to vehicle: estrogen 10 nM, others 1 μM
ASCs = test: Osteogenic differentiation of ASCs (alizarin red); conditions: 14 days; for osteogenic potential of ASCs relative to vehicle, with fulvestrant: 1 μM + 100 nM fulvestrant; for osteogenic potential of ASCs relative to vehicle, with fulvestrant / osteogenic potential of ASCs relative to vehicle, inhibitor study, without fulvestrant: FIG. 12; for osteogenic differentiation (calcium deposition), fold relative to vehicle-treated ASCs: n=6 donors; for osteogenic differentiation (calcium deposition), fold relative to vehicle-treated ASCs / cytotoxicity of ASCs by bright field microscopy, compared to vehicle: estrogen 10 nM, others 1 μM
BMSCs [3] = system: BMSCs
[4] = system: MSCs (Sp7, ALP, OP, IGF1 transcripts); test: qRT-PCR of osteogenic transcription factors in MSCs; type: cell-based, human; conditions: pooled MSCs, 1 μM, 14 days
From the text: . […] The following primer set sequence for was used: Sp7 forward 5′-CCAGTGTCTACACCTCTC-3′ (SEQ ID NO: 1), reverse 5′-ATGGAGTAGGAGTGTTGC-3′ (SEQ ID NO: 2); IGF-1 forward 5′-CTGTGATCTAAGGAGGCTG-3′ (SEQ ID NO: 3), reverse 5′-[…]-3′ (SEQ ID NO: 4); ALP forward 5′-[…]-3′ (SEQ ID NO: 5), reverse 5′-[…]-3′ (SEQ ID NO: 6); osteopontin forward 5′-[…]-3′ (SEQ ID NO: 7), reverse 5′-[…]-3′ (SEQ ID NO: 8). β-actin forward 5′-[…]-3′ (SEQ ID NO: 9), reverse 3′-[…]-5′ (SEQ ID NO: 10) was used as an internal reference point. At the completion of the reaction, ΔΔCt was calculated to quantify mRNA expression.

[5] = screen, MSCs from one donor (Donor 1), analogs and daidzein 1 μM, estrogen 10 nM, 14 days
[6] = Donor 1, estrogen 10 nM, 14 days
[7] = Donor 2, estrogen 10 nM, 14 days
[8] = Donor 3, estrogen 10 nM, 14 days

Compound: CCCCOc1ccc2c(c1)OCC(c1ccc(O)cc1)C2 (centres unmarked) [compound 9, 4-(7-Butoxychroman-3-yl)phenol]
- osteogenic activity (structure-activity summary, in words) ([1]; 14 days): no osteogenic activity

Compound: C=CCOc1ccc2c(=O)c(-c3ccc(O)cc3)coc2c1 [2l, 7-(Allyloxy)-3-(4-hydroxyphenyl)-4H-chromen-4-one]
- osteogenic potential of BMSCs relative to vehicle, with fulvestrant (BMSCs [2]): 1.5 fold
- osteogenic potential of BMSCs relative to vehicle, inhibitor study, without fulvestrant (BMSCs [2]; 1 μM): 2.0 fold
- osteogenic differentiation (calcium deposition), fold relative to vehicle-treated BMSCs (BMSCs [2]): 1.9 fold
- osteogenic potential of ASCs relative to vehicle, with fulvestrant (ASCs): 1.7 fold
- osteogenic potential of ASCs relative to vehicle, inhibitor study, without fulvestrant (ASCs; 1 μM): 2.4 fold
- osteogenic differentiation (calcium deposition), fold relative to vehicle-treated ASCs (ASCs): 2.2 fold
- differentiation at day 7 [1]: enhanced differentiation at day 7
- osteogenic activity (structure-activity summary, in words) ([1]; 14 days): marked enhancement
- IC50 ([1]; 14 days): 138 nM
- induction category of osteogenic differentiation (no, low, high induction) [1, 5]: high inducers
- osteogenesis averaged over all three donors, relative to vehicle treated MSCs ([1]; 14 days): 2.0±0.18
- cytotoxicity at higher dosages (BMSCs [3]): nor lead to cytotoxicity

Compound: CCCOc1ccc2c(=O)c(-c3ccc(O)cc3)coc2c1 [2d, 3-(4-Hydroxyphenyl)-7-propoxy-4H-chromen-4-one]
- cytotoxicity to donor MSCs ([1]; 14 days): cytotoxic; also recorded: toxicity to two donor cells
- osteogenic activity (structure-activity summary, in words) ([1]; 14 days): modest osteogenesis

Compound: CC(C)COc1ccc2c(=O)c(-c3ccc(O)cc3)coc2c1 [2f, 3-(4-Hydroxyphenyl)-7-isobutoxy-4H-chromen-4-one]
- differentiation at day 7 [1]: enhanced differentiation at day 7
- IC50 (analog concentration required to achieve 1.5 fold relative bone differentiation) ([1]; donor 3, 1 nM-1 μM, 14 days): 1.38 μM
- osteogenic activity (structure-activity summary, in words) ([1]; 14 days): marked enhancement
- IC50 ([1]; 14 days): 504 nM
- induction category of osteogenic differentiation (no, low, high induction) [1, 5]: high inducers
- osteogenesis averaged over all three donors, relative to vehicle treated MSCs ([1]; 14 days): 1.8±0.48

Compound: CC1(C)CCc2c(ccc3c2OCC(c2ccc(O)cc2)C3=O)O1 (centres unmarked) [compound 4, 3-(4-Hydroxyphenyl)-8,8-dimethyl-2,3,9,10-tetrahydropyrano[2,3-f]chromen-4(8H)-one]
- melting point: 176 to 180 °C
- osteogenic activity (structure-activity summary, in words) ([1]; 14 days): modest potential

Compound: CCOc1ccc2c(=O)c(-c3ccc(O)cc3)coc2c1 [2b, 7-Ethoxy-3-(4-hydroxyphenyl)-4H-chromen-4-one]
- osteogenic activity (structure-activity summary, in words) ([1]; 14 days): modest osteogenic activity

Compound: CCCCOc1ccc2c(=O)c(-c3ccc(O)cc3)coc2c1 [2e, 7-Butoxy-3-(4-hydroxyphenyl)-4H-chromen-4-one]
- osteogenic activity (structure-activity summary, in words) ([1]; 14 days): marked enhancement; also recorded: over two-fold increase
- induction category of osteogenic differentiation (no, low, high induction) [1, 5]: high inducers
- osteogenesis averaged over all three donors, relative to vehicle treated MSCs ([1]; 14 days): 2.3±0.33

Compound: CC(C)Oc1ccc2c(=O)c(-c3ccc(O)cc3)coc2c1 [2c, 3-(4-Hydroxyphenyl)-7-isopropoxy-4H-chromen-4-one]
- osteogenic differentiation (calcium deposition), fold relative to vehicle-treated BMSCs (BMSCs [2]): 1.6 fold
- osteogenic differentiation (calcium deposition), fold relative to vehicle-treated ASCs (ASCs): 1.7 fold
- differentiation at day 7 [1]: enhanced differentiation at day 7
- osteogenic activity (structure-activity summary, in words) ([1]; 14 days): marked enhancement
- IC50 ([1]; 14 days): 58.2 nM
- induction category of osteogenic differentiation (no, low, high induction) [1, 5]: high inducers
- osteogenesis averaged over all three donors, relative to vehicle treated MSCs ([1]; 14 days): 2.0±0.41
- ALP expression relative to cells treated with vehicle in ODM [4]: 2.45±0.80
- IGF1 expression relative to cells treated with vehicle in ODM [4]: 26.96±9.19
- OP expression relative to cells treated with vehicle in ODM [4]: 2.68±0.11
- Sp7 expression relative to cells treated with vehicle in ODM [4]: 20.08±4.81

Compound: O=c1c(-c2ccc(O)cc2)coc2cc(O)ccc12 [daidzein, Daidzein]
- osteogenic potential of BMSCs relative to vehicle, with fulvestrant (BMSCs [2]): 1.0 fold
- osteogenic potential of BMSCs relative to vehicle, inhibitor study, without fulvestrant (BMSCs [2]; 1 μM): 1.7 fold
- cytotoxicity of BMSCs by bright field microscopy, compared to vehicle (BMSCs [2]): did not demonstrate enhanced cytotoxicity
- osteogenic differentiation (calcium deposition), fold relative to vehicle-treated BMSCs (BMSCs [2]): 1.5 fold
- osteogenic potential of ASCs relative to vehicle, with fulvestrant (ASCs): 1.0 fold
- osteogenic potential of ASCs relative to vehicle, inhibitor study, without fulvestrant (ASCs; 1 μM): 1.5 fold
- cytotoxicity of ASCs by bright field microscopy, compared to vehicle (ASCs): did not demonstrate enhanced cytotoxicity
- osteogenic differentiation (calcium deposition), fold relative to vehicle-treated ASCs (ASCs): 1.7 fold
- osteogenic differentiation of MSCs, fold relative to vehicle treated MSCs [1, 6]: 1.7±0.19 fold
- osteogenic differentiation of MSCs, fold relative to vehicle treated MSCs [1, 7]: 1.7±0.01 fold
- osteogenic differentiation of MSCs, fold relative to vehicle treated MSCs [1, 8]: 1.6±0.15 fold
- induction category of osteogenic differentiation (no, low, high induction) [1, 5]: low inducers
- osteogenic differentiation relative to vehicle treated MSCs in ODM [1, 5]: 1.7±0.3 fold

Compound: CCCCCCOc1ccc2c(=O)c(-c3ccc(O)cc3)coc2c1 [2h, 7-Hexyloxy-3-(4-hydroxyphenyl)-4H-chromen-4-one]
- osteogenic activity (structure-activity summary, in words) ([1]; 14 days): marked enhancement
- induction category of osteogenic differentiation (no, low, high induction) [1, 5]: high inducers
- osteogenesis averaged over all three donors, relative to vehicle treated MSCs ([1]; 14 days): 2.0±0.48

Compound: O=c1c(-c2ccc(O)cc2)coc2cc(OCCN3CCCCC3)ccc12 [2i, 3-(4-Hydroxyphenyl)-7-(2-(piperidin-1-yl)ethoxy)-4H-chromen-4-one]
- cytotoxicity to donor MSCs ([1]; 14 days): cytotoxic; also recorded: potent toxicity to two donors
- induction category of osteogenic differentiation (no, low, high induction) [1, 5]: high inducers

Compound: CC1(C)CCc2c(ccc3c2OCC(c2ccc(O)cc2)C3)O1 (centres unmarked) [compound 5, 4-(8,8-Dimethyl-2,3,4,8,9,10-hexahydropyrano[2,3-f]chromen-3-yl)phenol]
- osteogenic activity (structure-activity summary, in words) ([1]; 14 days): no discernible osteogenic activity

Compound: CN(C)CCOc1ccc2c(=O)c(-c3ccc(O)cc3)coc2c1 [2k, 7-(2-(Dimethylamino)ethoxy)-3-(4-hydroxyphenyl)-4H-chromen-4-one]
- osteogenic activity (structure-activity summary, in words) ([1]; 14 days): no osteogenic effect

Compound: COc1ccc(C(=O)Nc2ccc(OCC(C)C)cc2)c(OC)c1 [12b, N-(4-Isobutoxyphenyl)-2,4-dimethoxybenzamide]
- osteogenic activity (structure-activity summary, in words) ([1]; 14 days): not active at all

Compound: CC1(C)C=Cc2c(ccc3c(=O)c(-c4ccc(B5OC(C)(C)C(C)(C)O5)cc4)coc23)O1 [compound 8, 8,8-dimethyl-3-(4-(4,4,5,5-tetramethyl-1,3,2-dioxaborolan-2-yl)phenyl)pyrano[2,3-f]chromen-4(8H)-one]
- melting point: 228 to 230 °C

Compound: COc1ccc(NC(=O)c2ccc(OC)cc2OC)cc1 [12a, 2,4-Dimethoxy-N-(4-methoxyphenyl)benzamide]
- osteogenic activity (structure-activity summary, in words) ([1]; 14 days): strong osteogenic activity
- induction category of osteogenic differentiation (no, low, high induction) [1, 5]: high inducers

Compound: C#CCOc1ccc2c(=O)c(-c3ccc(O)cc3)coc2c1 [compound 6, 3-(4-Hydroxyphenyl)-7-(prop-2-yn-1-yloxy)-4H-chromen-4-one]
- melting point: 228 to 230 °C
- osteogenic activity (structure-activity summary, in words) ([1]; 14 days): only modest osteogenic potential

Compound: Cc1cc2c(ccc3c(=O)c(-c4ccc(O)cc4)coc32)o1 [compound 7, 3-(4-hydroxyphenyl)-8-methyl-4H-furo[2,3-h]chromen-4-one]
- osteogenic activity (structure-activity summary, in words) ([1]; 14 days): modest potential

Compound: CC1(C)C=Cc2c(ccc3c(=O)c(-c4ccc(O)cc4)coc23)O1 [compound 3, 3-(4-Hydroxyphenyl)-8,8-dimethyl-8H-pyrano[2,3f]-chromen-4-one]
- melting point: 262 to 264 °C
- osteogenic activity (structure-activity summary, in words) ([1]; 14 days): did not exhibit any osteogenic activity

Compound: COc1ccc2c(=O)c(-c3ccc(O)cc3)coc2c1 [2a, 3-(4-Hydroxyphenyl)-7-methoxy-4H-chromen-4-one]
- osteogenic activity (structure-activity summary, in words) ([1]; 14 days): modest osteogenic activity

Compound: COc1ccc(C(=O)Nc2ccc(O)cc2)c(OC)c1 [compound 11, N-(4-Hydroxyphenyl)-2,4-dimethoxybenzamide]
- osteogenic activity (structure-activity summary, in words) ([1]; 14 days): not active at all

Compound: O=c1c(-c2ccc(O)cc2)coc2cc(O)cc(O)c12 [genistein, reference compound]
- BMSC donors that did not respond to treatment (BMSCs [2]; 6 donors, 1 μM): 2 of the 6
- cytotoxicity of BMSCs by bright field microscopy, compared to vehicle (BMSCs [2]): did not demonstrate enhanced cytotoxicity
- osteogenic differentiation (calcium deposition), fold relative to vehicle-treated BMSCs (BMSCs [2]): 1.4 fold
- ASC donors that did not respond to treatment (ASCs; 6 donors, 1 μM): 3 of the 6
- cytotoxicity of ASCs by bright field microscopy, compared to vehicle (ASCs): did not demonstrate enhanced cytotoxicity
- osteogenic differentiation (calcium deposition), fold relative to vehicle-treated ASCs (ASCs): 1.4 fold
- osteogenic differentiation of MSCs, fold relative to vehicle treated MSCs [1, 6]: 1.6±0.19 fold
- osteogenic differentiation of MSCs, fold relative to vehicle treated MSCs [1, 7]: 1.7±0.02 fold
- osteogenic differentiation of MSCs, fold relative to vehicle treated MSCs [1, 8]: 1.0±0.15 fold

Compound: CC1(C)C=Cc2cc3c(cc2O1)OCC(c1ccc(O)cc1)C3 (centres unmarked) [compound 10, 4-(8,8-Dimethyl-2,3,4,8-tetrahydropyrano[3,2-g]chromen-3-yl)phenol]
- osteogenesis averaged over all three donors, relative to vehicle treated MSCs ([1]; 14 days): 2.2±0.19

Compound: O=c1c(-c2ccc(O)cc2)coc2cc(OCCN3CCCC3)ccc12 [2j, 3-(4-Hydroxyphenyl)-7-(2-(pyrrolidin-1-yl)ethoxy)-4H-chromen-4-one]
- osteogenic activity (structure-activity summary, in words) ([1]; 14 days): no osteogenic effect
